{
  "source": "patent US8703811B2",
  "about": "“Small molecule inhibitors of Plasmodium falciparum dihydroorotate dehydrogenase” (Genzyme Corporation, priority 2008, dated 2014)",
  "key": {"P. falciparum Dd2": {"system": "P. falciparum Dd2", "assay": "Inhibition of in vitro P. falciparum culture, [3H]-hypoxanthine uptake, Dd2", "type": "cell-based", "details": "Plasmodium falciparum, DD2, Erythrocyte, [3H]-hypoxanthine uptake by parasite infected erythrocytes; read-out: Dd2 IC50", "how_it_was_run": "(§1)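 Parasite growth inhibition measured as relative reduction of [3H]-hypoxanthine uptake in in vitro cultures. Values from non-linear regression fit, using relative growth velocity in place of product-formation rate.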"}, "[1]": {"system": "P. falciparum D10-scDHODH", "assay": "Inhibition of transgenic D10-scDHODH parasites, [3H]-hypoxanthine uptake", "type": "cell-based", "method": "(§2) P. falciparum strains D10, 3D7, HB3, and Dd2 were obtained from the Malaria Research and Reference Reagent Resource Center (Manassas, Va.). The parasite strains were maintained in vitro by method of Trager and Jensen. The inhibition of P. falciparum growth in the presence of drug was assessed by the relative reduction of [^3H]-hypoxanthine uptake as previously described. Inhibition data were fitted to Equation 1 using non-linear regression analysis except that the relative velocity of parasite growth was substituted for the rate of product formation.\nTransgenic parasites expressing scDHODH were generated as described by Painter et al. except that full length scDHODH was cloned directly into the pGem3Z vector without a GFP tag. The resultant plasmid was transfected into ring stages of P. falciparum D10 by electroporation and maintained in culture using standard methods under the selection of WR99210."}, "P. falciparum 3D7": {"system": "P. falciparum 3D7", "assay": "Inhibition of in vitro P. falciparum culture, [3H]-hypoxanthine uptake, 3D7", "type": "cell-based", "details": "Plasmodium falciparum, 3D7, Erythrocyte; [3H]-hypoxanthine uptake by parasite infected erythrocytes; read-out: 3D7 IC50", "how_it_was_run": "as §1"}, "P. falciparum HB3": {"system": "P. falciparum HB3", "assay": "Inhibition of in vitro P. falciparum culture, [3H]-hypoxanthine uptake, HB3", "type": "cell-based", "details": "Plasmodium falciparum, HB3, Erythrocyte; [3H]-hypoxanthine uptake by parasite infected erythrocytes; read-out: HB3 IC50", "method": "as §2"}, "scDHODH": {"target": "scDHODH (Saccharomyces cerevisiae (strain ATCC 204508 / S288c) (Baker's yeast), UniProt P28272)", "sequence (P28272 whole entry)": "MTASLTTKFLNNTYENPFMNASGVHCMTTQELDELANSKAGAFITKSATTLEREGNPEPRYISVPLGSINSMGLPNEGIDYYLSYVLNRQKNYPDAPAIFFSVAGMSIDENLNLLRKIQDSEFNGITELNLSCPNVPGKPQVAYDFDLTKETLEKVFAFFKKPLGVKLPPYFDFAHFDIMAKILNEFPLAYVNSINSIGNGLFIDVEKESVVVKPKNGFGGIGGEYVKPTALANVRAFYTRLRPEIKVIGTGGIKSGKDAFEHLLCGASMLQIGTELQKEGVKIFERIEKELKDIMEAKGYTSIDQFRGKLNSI", "assay": "DCIP assay with fumarate, scDHODH", "type": "biochemical", "details": "115 μM fumarate in lieu of CoQD"}, "hsDHODH": {"target": "hsDHODH (Homo sapiens (Human), UniProt Q02127)", "sequence (Q02127 29-395 limits assumed)": "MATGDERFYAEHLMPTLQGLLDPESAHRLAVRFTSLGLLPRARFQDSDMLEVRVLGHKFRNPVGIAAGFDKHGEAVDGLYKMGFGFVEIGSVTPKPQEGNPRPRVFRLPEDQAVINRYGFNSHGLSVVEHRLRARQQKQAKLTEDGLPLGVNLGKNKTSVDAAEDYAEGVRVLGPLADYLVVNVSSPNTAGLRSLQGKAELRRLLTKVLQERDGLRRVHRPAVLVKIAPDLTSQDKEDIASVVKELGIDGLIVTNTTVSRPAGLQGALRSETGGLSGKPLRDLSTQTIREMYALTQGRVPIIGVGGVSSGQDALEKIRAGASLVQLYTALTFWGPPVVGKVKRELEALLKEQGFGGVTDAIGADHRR", "assay": "DCIP assay, hsDHODH", "type": "biochemical", "details": "DCIP assay; 200 μM L-DHO, 18 μM CoQD, 100 μM DCIP, 20 nM enzyme; read-out: hsDHODH IC50", "description": "(§3) Type 2 DHODH activity was monitored with either the direct assay measuring the formation of orotate or via a chromogen reduction assay using DCIP. Although the extinction coefficient and absorption wavelength are preferable for the chromogen reduction assay, the inorganic electron acceptor DCIP can be utilized by DHODH as the final electron acceptor in lieu of CoQn when the endogenous substrate is at a low concentration. As such, the direct assay was used to measure the binding affinity of pfDHODH to CoQD and L-DHO. The enzymatic reaction was performed by varying the L-DHO concentration (1-400 μM) or CoQD concentration (1-200 μM) while keeping the other substrate constant and in excess. The formation of orotate was measured continuously at 296 nm (ε296=4.3 mM^−1 cm^−1). Inhibition of DHODH by small molecules was evaluated using the chromogen based assay with a final substrate concentration of 200 μM L-DHO, 18 μM CoQD, and 100 μM DCIP, unless otherwise noted. The reduction of DCIP was monitored at 600 nm (ε600=18.8 mM^−1 cm^−1).\n(§4) Substrate specificity and enzyme inhibition data was analyzed with GraphPad Prism Version 4 for Windows (GraphPad Software). Kinetic constants were calculated by non-linear regression fitting of the data to the Michaelis-Menten equation [36]. IC50 values were determined by non-linear regression fitting of the data to Equation 1: […]"}, "[2]": {"assay": "Normal Human Dermal Fibroblast Toxicity Screen", "type": "cell-based", "details": "human, normal human dermal fibroblasts; four days exposure, Alamar Blue; read-out: Dermal Fibroblast LC50", "method": "The Normal Human Dermal Fibroblast Toxicity Screen Protocol is designed to determine whether compound mixtures, breakouts or single compounds are toxic to normal human dermal fibroblasts. The screen involves plating the dermal fibroblasts and then exposing them to the compounds for four days, then cell viability is measured using Alamar Blue reagent.\nHarvested Dermal Fibroblast cells were diluted in Growth Media to 0.25 to 0.3×10^5 cells/mL. […] NOTE: One plate, the T=0 plate required that 20-30 wells be seeded and all the other plates had 96 wells seeded. Plates were incubated in 37° C./5% CO2 incubator for 24 hours.\nAlamar Blue solution (25 μL/well) was added to the T=0 plate and the plate was agitated. The plate in 37° C./5% CO2 incubator was incubated for 3 hours, agitated the and the fluorescence was measured. 10% Tween 20 stock (10 μL) was added into rows A-D in column 1 (positive control). DMSO (0.5 μL) was added into column 2 (negative control). Compounds were placed into designated wells for desired testing as follows:\nPlates were mixed on the shaker, then incubated in 37° C./5% CO2 incubator for 96 hours.\nAlamar Blue solution (25 μL/well) was added to the plates containing the compounds, and the plates were agitated. The plates were incubated in 37° C./5% CO2 incubator for 3 hours, agitated and then the fluorescence was measured."}, "pbDHODH": {"target": "pbDHODH (Plasmodium berghei, UniProt A0A509AEH5)", "sequence (A0A509AEH5 1-517)": "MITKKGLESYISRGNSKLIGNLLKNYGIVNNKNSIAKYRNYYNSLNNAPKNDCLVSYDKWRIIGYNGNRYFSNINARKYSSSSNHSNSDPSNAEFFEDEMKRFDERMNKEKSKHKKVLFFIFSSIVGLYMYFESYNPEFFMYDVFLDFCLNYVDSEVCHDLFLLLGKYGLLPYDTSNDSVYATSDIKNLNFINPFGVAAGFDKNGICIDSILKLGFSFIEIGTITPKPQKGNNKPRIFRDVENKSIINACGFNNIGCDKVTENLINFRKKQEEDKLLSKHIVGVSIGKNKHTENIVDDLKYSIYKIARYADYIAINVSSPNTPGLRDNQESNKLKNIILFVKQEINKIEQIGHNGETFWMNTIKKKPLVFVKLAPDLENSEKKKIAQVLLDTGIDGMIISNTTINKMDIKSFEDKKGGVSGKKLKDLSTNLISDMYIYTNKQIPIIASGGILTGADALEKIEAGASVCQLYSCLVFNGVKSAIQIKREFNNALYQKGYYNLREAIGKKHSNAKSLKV", "assay": "DCIP assay, pbDHODH", "type": "biochemical, P. berghei", "details": "200 μM L-DHO, 18 μM CoQD, 100 μM DCIP, 20 nM enzyme", "description": "as §3, §4"}, "pfDHODH [3]": {"target": "T1, pfDHODH (Plasmodium falciparum (isolate 3D7), UniProt Q08210)", "T1 sequence (Q08210 159-565 limits assumed)": "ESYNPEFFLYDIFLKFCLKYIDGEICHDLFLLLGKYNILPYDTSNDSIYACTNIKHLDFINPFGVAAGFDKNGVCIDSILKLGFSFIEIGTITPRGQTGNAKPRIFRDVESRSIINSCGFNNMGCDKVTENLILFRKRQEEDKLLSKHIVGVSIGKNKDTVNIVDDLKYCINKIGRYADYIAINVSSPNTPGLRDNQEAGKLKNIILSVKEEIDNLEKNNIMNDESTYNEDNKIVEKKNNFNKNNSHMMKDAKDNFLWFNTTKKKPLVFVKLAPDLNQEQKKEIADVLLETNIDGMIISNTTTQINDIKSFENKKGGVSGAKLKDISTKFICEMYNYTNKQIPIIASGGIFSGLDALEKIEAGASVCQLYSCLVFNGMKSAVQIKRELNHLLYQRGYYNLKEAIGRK", "assay": "pfDHODH activity with FeCy as electron acceptor", "details": "read-out: % Inhibition of Product Formation Rate with 50 μM Inhibitor, FeCy", "quoted_text": "Inhibitors of DHODH, as classified by the chromogen reduction assay, were also evaluated for activity using FeCy as an electron acceptor. A final concentration of 5-50 nM DHODH, 200 μM L-DHO and 100 μM FeCy in Buffer C was used in this assay. Both the reduction of FeCy and the formation of orotate was monitored at 420 nm (ε420=1 mM^−1 cm^−1) and 290 nm (ε280=2 mM^−1 cm^−1), respectively, noting that two molecules of FeCy are reduced for one molecule of L-DHO. As with the previous assays, the reaction was performed at 25° C. and initiated with the addition of enzyme."}, "P. falciparum D10": {"system": "P. falciparum D10", "assay": "Inhibition of in vitro P. falciparum culture, [3H]-hypoxanthine uptake, D10", "type": "cell-based", "details": "Plasmodium falciparum, D10, Erythrocyte; [3H]-hypoxanthine uptake by parasite infected erythrocytes; read-out: D10 IC50", "method": "as §2"}, "pvDHODH": {"target": "pvDHODH (Plasmodium vivax, UniProt A5K1N1)", "sequence (A5K1N1 1-572)": "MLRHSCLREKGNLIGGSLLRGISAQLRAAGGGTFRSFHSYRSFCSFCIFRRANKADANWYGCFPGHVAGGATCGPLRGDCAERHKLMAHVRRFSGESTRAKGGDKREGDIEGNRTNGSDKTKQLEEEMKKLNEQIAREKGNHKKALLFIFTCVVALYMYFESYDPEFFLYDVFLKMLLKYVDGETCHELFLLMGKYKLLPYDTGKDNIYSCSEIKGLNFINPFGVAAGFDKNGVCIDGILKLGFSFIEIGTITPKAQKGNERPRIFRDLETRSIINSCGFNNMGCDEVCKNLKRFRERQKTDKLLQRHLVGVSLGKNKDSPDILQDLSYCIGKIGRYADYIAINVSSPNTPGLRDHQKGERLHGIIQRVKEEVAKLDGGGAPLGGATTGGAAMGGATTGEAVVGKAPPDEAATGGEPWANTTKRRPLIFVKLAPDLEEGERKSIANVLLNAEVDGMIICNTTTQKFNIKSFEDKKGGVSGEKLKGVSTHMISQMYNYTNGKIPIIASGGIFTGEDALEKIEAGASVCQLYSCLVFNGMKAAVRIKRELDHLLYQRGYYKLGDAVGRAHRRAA", "assay": "DCIP assay, pvDHODH", "type": "biochemical, P. vivax", "details": "200 μM L-DHO, 18 μM CoQD, 100 μM DCIP, 20 nM enzyme", "description": "as §3, §4"}, "[4]": {"assay": "Renal Proximal Tubule Epithelial Cell Toxicity Screen", "type": "cell-based", "method": "The Renal Proximal Tubule Epithelial Cell Toxicity Screen is designed to determine whether compound mixtures, breakouts or single compounds are toxic to normal renal epithelial cells. […] Basically, the screen consists of plating renal epithelial cells, exposing them to the desired compound(s) for 4 days and measuring cell viability using the Alamar Blue reagent.\nHarvested Kidney Epithelial cells were diluted in REGM to 1.5×10^4 cells/mL. […] NOTE: One plate, the T=0 plate required that 20-30 wells be seeded, and all the other plates had 96 wells seeded. Plates were incubated in 37° C./5% CO2 incubator for 24 hours.\nAlamar Blue solution (25 μL/well) was added to the T=0 plate and mixed. The plate was incubated in 37° C./5% CO2 incubator for 4 hours, mixed and then the fluorescence was measured. 10% Tween 20 stock (10 μL) was added into rows A-D in column 1 (positive control). DMSO (0.5 μL) was added into column 2 (negative control). Compounds were placed into designated wells for desired testing as follows:\nPlates were mixed on the shaker, and then incubated in 37° C./5% CO2 incubator for 96 hours. Day 6:\nAlamar Blue solution (25 μL/well) was added to the plates containing the compounds and mixed. Plates were incubated in 37° C./5% CO2 incubator for 4 hours, mixed and the fluorescence was measured."}, "pfDHODH [5]": {"target": "T1, pfDHODH", "assay": "DHODH chromogen reduction (DCIP) assay, pfDHODH", "type": "biochemical, P. falciparum", "details": "200 μM L-DHO"}},
  "data": [
    {"smiles": "O=C(NC1CC1)c1ccc(N2CCSc3ccccc32)s1", "note": "[Compound 5, 5(2H-benzo[b][1,4]thiazin-4(3H)-yl)-N-cyclopropylthiophene-2-carboxamide]", "values": [
      {"measurement": "IC50", "setting": "P. falciparum Dd2", "result": 620, "unit": "nM"},
      {"measurement": "IC50", "setting": "[1]; Plasmodium falciparum, D10, read-out: D10-scDHODH IC50", "result": "> 10000", "unit": "nM"},
      {"measurement": "efficacy against D10-scDHODH strain compared to D10 parent strain", "setting": "[1]; dose-effect curves, FIG. 5", "result": "significantly reduced"},
      {"measurement": "IC50", "setting": "P. falciparum 3D7", "result": 890, "unit": "nM"},
      {"measurement": "IC50", "setting": "P. falciparum HB3", "result": 910, "unit": "nM"},
      {"measurement": "IC50", "setting": "scDHODH", "result": "> 10000", "unit": "nM"},
      {"measurement": "IC50", "setting": "hsDHODH", "result": "7900 ± 400", "unit": "nM"},
      {"measurement": "CC50 at 96 h", "setting": "[2]", "result": "> 62000", "unit": "nM"},
      {"measurement": "IC50", "setting": "pbDHODH", "result": "380 ± 60", "unit": "nM"},
      {"measurement": "inhibition at 50 µM", "setting": "pfDHODH [3]", "result": 23, "unit": "%"},
      {"measurement": "IC50", "setting": "P. falciparum D10", "result": 950, "unit": "nM"},
      {"measurement": "IC50", "setting": "pvDHODH", "result": "280 ± 10", "unit": "nM"},
      {"measurement": "CC50 at 96 h", "setting": "[4]", "result": "> 62000", "unit": "nM"},
      {"measurement": "inhibition at 50 µM", "setting": "pfDHODH [5]; 50 μM inhibitor, 100 μM CoQD, 60 μM DCIP, read-out: % Inhibition of Product Formation Rate with 50 μM Inhibitor, CoQD", "result": 97, "unit": "%"},
      {"measurement": "IC50", "setting": "pfDHODH [5]; DCIP assay, 18 μM CoQD, 100 μM DCIP, 20 nM enzyme, read-out: pfDHODH IC50", "result": "250 ± 30", "unit": "nM"}
    ]}
  ]
}
